These are literature values, as cited in patent US6517814B2, “Macrocyclic chelants useful for metallopharmaceuticals” (Bristol-Myers Squibb Pharma Company, priority 2001, dated 2003).

Where two headings read alike, the source gives them in different places.

With `O=C([O-])CN1CCN(CC(=O)[O-])CCN(CC(=O)[O-])CCN(CC(=O)[O-])CC1.[Gd+3]` [[Gd(DOTA]^−], the half-life (in 0.1 M HCl) is recorded as 60.2 h.
For the molecule `O=C([O-])CN(CCN(CC(=O)[O-])CC(=O)[O-])CCN(CC(=O)[O-])CC(=O)[O-].[Gd+3]` [[Gd(DTPA]^2−], the half-life (decomposes rapidly under acidic conditions) is ~0.0167 h.
